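Tested at 5 concentrations; 48 h exposure; 96-well plates; endpoints linearly interpolated, else capped at highest concentration. TGI is the concentration that stops growth completely.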
What was measured:
Experiment in all cases: DTP human tumour cell line panel, 48 h
[1] = test system: 786-0 renal
[2] = test system: A549 NSCLC
[3] = test system: ACHN renal
[4] = test system: BT-549 breast
[5] = test system: CAKI-1 renal
[6] = test system: CCRF-CEM leukemia
[7] = test system: COLO 205 colon
[8] = test system: DU-145 prostate
[9] = test system: EKVX NSCLC
[10] = test system: HCC-2998 colon
[11] = test system: HCT-116 colon
[12] = test system: HCT-15 colon
[13] = test system: HL-60(TB) leukemia
[14] = test system: HOP-62 NSCLC
[15] = test system: HOP-92 NSCLC
[16] = test system: HS 578T breast
[17] = test system: HT29 colon
[18] = test system: IGROV1 ovarian
[19] = test system: K-562 leukemia
[20] = test system: LOX IMVI melanoma
[21] = test system: M14 melanoma
[22] = test system: MALME-3M melanoma
[23] = test system: MCF7 breast
[24] = test system: MDA-MB-231 breast
[25] = test system: MDA-MB-435
[26] = test system: MOLT-4 leukemia
[27] = test system: NCI-H226 lung
[28] = test system: NCI-H23 lung
[29] = test system: NCI-H460 lung
[30] = test system: NCI-H522 lung
[31] = test system: NCI/ADR-RES ovarian
[32] = test system: OVCAR-3 ovarian
[33] = test system: OVCAR-4 ovarian
[34] = test system: OVCAR-5 ovarian
[35] = test system: OVCAR-8 ovarian
[36] = test system: PC-3 prostate
[37] = test system: RPMI-8226 leukemia
[38] = test system: RXF 393 renal
[39] = test system: SF-268 CNS
[40] = test system: SF-295 CNS
[41] = test system: SF-539 CNS
[42] = test system: SK-MEL-2 melanoma
[43] = test system: SK-MEL-28 melanoma
[44] = test system: SK-MEL-5 melanoma
[45] = test system: SK-OV-3 ovarian
[46] = test system: SN12C renal
[47] = test system: SNB-19 CNS
[48] = test system: SNB-75 CNS
[49] = test system: SR leukemia
[50] = test system: SW-620 colon
[51] = test system: T-47D breast
[52] = test system: TK-10 renal
[53] = test system: UACC-257 melanoma
[54] = test system: UO-31 renal

Measured: TGI

CC(=O)N1C(Nc2ccccc2)CCN1c1ccccc1 (centres undefined)
> 10 µM: [1] | [2] | [3] | [4] | [5] | [6] | [7] | [8] | [9] | [10] | [11] | [12] | [13] | [14] | [15] | [16] | [17] | [18] | [19] | [20] | [21] | [22] | [23] | [24] | [25] | [26] | [27] | [28] | [29] | [30] | [31] | [32] | [33] | [34] | [35] | [36] | [37] | [38] | [39] | [40] | [41] | [42] | [43] | [44] | [45] | [46] | [47] | [48] | [49] | [50] | [51] | [52] | [53] | [54]

From PubChem BioAssay (NCI)
